In patent publication US11884750B2, “Cationic cell penetrating peptides and the use thereof” (CELLTROY CO., LTD., priority 2021, dated 2024):

Experiments:
SH-SY5Y cells = assay: Cell penetration efficiency in human neuroblastoma cells, 4 μM, flow cytometry; assay type: cell-based; conditions: one hour; for cell permeability compared with TAT: 4 μM FITC-conjugated CPP, flow cytometry; for Score / Score/TAT: 4 μM FITC-conjugated peptide; for Score: intracellular fluorescence by flow cytometry; for Score/TAT: ratio to FITC-conjugated TAT
Experimental: The cell penetration efficiency of the cationic CPPs selected in Example 1 was evaluated in neuroblastoma. In further detail, SH-SYSY cells, which is a human neuroblastoma cell line, were seeded in 24-well plates to have a cell density of 1×10^7 cells/well, and cultured in 10% FBS-added DMEM under conditions of 37° C. and 5% CO2 for 24 hours. In addition, the cells were treated with 4 μM each of FITC-conjugated CPPs (C12, C14, C16, C31, C52, and C67), or FITC-conjugated TAT, and incubated for one hour. After the termination of the incubation, the cells were transferred to a sterile tube using 0.25% trypsin and centrifuged to remove the medium. Afterward, the cells were washed with 500 μL of D-PBS twice to completely remove the medium, and finally, resuspended in 400 μL of D-PBS and intracellular fluorescence was measured by flow cytometry (FACSCanto II).
(§1) To evaluate the cell penetration efficiency of the additionally selected cationic CPPs, an experiment was conducted using human epidermal cells or human neuroblastoma cells. In further detail, HaCAT cells, which is a human epidermal cell line, or SH-SYSY cells, which is a human neuroblastoma cell line, were seeded in 24-well plates to have a cell density of 1×10^7 cells/well and cultured in 10% FBS-added DMEM under conditions of 37° C. and 5% CO2 for 24 hours. In addition, the cells were treated with 4 μM each of FITC-conjugated peptides and FITC-conjugated TAT for one hour. After the completion of the culture, the cells were transferred to a sterile tube using 0.25% trypsin and centrifuged to remove the medium. Afterward, the cells were washed with 500 μL of D-PBS twice to completely remove the medium, and finally, resuspended in 400 μL of D-PBS and intracellular fluorescence was measured by flow cytometry (FACSCanto II).
(§2) Subsequently, to confirm whether the CPPs according to the present invention show excellent cell permeability into different types of cells/tissues, various tissue-derived cells were treated with biologically active molecule-conjugated CPPs to compare its delivery capacity with TAT. As in the previous examples, each cell was aliquoted in a plate at an appropriate density, and cultured in a 10% FBS-added medium under a condition of 37° C. and 5% CO2 for 24 hours. Subsequently, the cells were treated with 4 μM each of FITC-conjugated CPP or FITC-conjugated TAT and incubated for one hour. After the completion of the incubation, the cells were transferred to a sterile tube using 0.25% trypsin and centrifuged to remove the medium. Afterward, the cells were washed with 500 μL of D-PBS twice to completely remove the medium, and finally, resuspended in 400 μL of D-PBS and intracellular fluorescence was measured by flow cytometry (FACSCanto II).

monocytes = assay: Cell penetration efficiency using monocytes; assay type: cell-based; conditions: 4 μM FITC-conjugated CPP, one hour
Experimental: as §2

HGB cell line = assay: Cell penetration efficiency in glioblastoma cells; assay type: cell-based, human; conditions: 4 μM FITC-conjugated CPP, one hour
Experimental: as §2

HDF cell line = assay: Cell penetration efficiency in skin cells (HDF); assay type: cell-based; conditions: 4 μM FITC-conjugated CPP, one hour
Experimental: as §2

HeLa cell line = assay: Cell penetration efficiency using cervical cancer cells; assay type: cell-based; conditions: 4 μM FITC-conjugated CPP, one hour
Experimental: as §2

HT1080 cell line = assay: Cell penetration efficiency using connective tissue (fibrosarcoma) cells; assay type: cell-based; conditions: 4 μM FITC-conjugated CPP, one hour
Experimental: as §2

HEK293T cell line = assay: Cell penetration efficiency using kidney cells; assay type: cell-based; conditions: 4 μM FITC-conjugated CPP, one hour
Experimental: as §2

A-427 cell line = assay: Cell penetration efficiency using lung cells; assay type: cell-based; conditions: A-427 lung cells, 4 μM FITC-conjugated CPP, one hour
Experimental: as §2

macrophages = assay: Cell penetration efficiency using macrophages; assay type: cell-based; conditions: macrophages differentiated from THP1 cells, 4 μM FITC-conjugated CPP, one hour
Experimental: as §2, with “II). Macrophages were used by inducing differentiation from THP1 cells. Specifically, the THP-1 cells were aliquoted on a cover glass laid on a 24-well plate to have a density of 6×10^4 cells/well, and after the addition of 100 ng/mL of phorbol 12-myristate 13-acetate (PMA), the cells were incubated for 48 hours to induce the differentiation into macrophages. After 48 hours, the cells were washed with Dulbecco's phosphate buffered saline (DPBS) to perform an experiment.” for “II).”

HaCAT cells = assay: Cell penetration efficiency in human epidermal (skin) cells, 4 μM, flow cytometry; assay type: cell-based; conditions: 4 μM FITC-conjugated CPP, one hour
Experimental: The cell penetration efficiency of the cationic CPPs selected in Example 1 was evaluated using human epidermal cells. In further detail, HaCAT cells, which is a human epidermal cell line, were seeded in 24-well plates to have a cell density of 1×10^7 cells/well, and cultured in 10% FBS-added DMEM under conditions of 37° C. and 5% CO2 for 24 hours. Subsequently, the cells were treated 4 μM each of the FITC-conjugated CPP or FITC-conjugated TAT, and incubated for one hour. After the termination of the incubation, the cells were transferred to a sterile tube using 0.25% trypsin, and the medium was removed through centrifugation. Afterward, the cells were washed with 500 μL of D-PBS twice to completely remove the medium, and finally, resuspended in 400 μL of D-PBS and intracellular fluorescence was measured by flow cytometry (FACSCanto II).
as §1, §2

SNU-46 cell line = assay: Cell penetration efficiency using laryngeal cells; assay type: cell-based; conditions: SNU-46 laryngeal cells, 4 μM FITC-conjugated CPP, one hour
Experimental: as §2

| Sequence | cell permeability compared with TAT (SH-SY5Y cells) | Score (SH-SY5Y cells) | Score/TAT (SH-SY5Y cells) | cell permeability compared with TAT (monocytes) | cell permeability compared with TAT (HGB cell line) | cell permeability compared with TAT (HDF cell line) | cell permeability compared with TAT (HeLa cell line) | cell permeability compared with TAT (HT1080 cell line) | cell permeability compared with TAT (HEK293T cell line) | cell permeability compared with TAT (A-427 cell line) | cell permeability compared with TAT (macrophages) | cell permeability compared with TAT (HaCAT cells) | cell permeability compared with TAT (SNU-46 cell line) |
| --- | --- | --- | --- | --- | --- | --- | --- | --- | --- | --- | --- | --- | --- |
| KRKLKVRRKLREPR [C115] | higher cell permeability | 563 | 1.085 | higher cell permeability | – | – | – | – | – | – | – | – | – |
| RRALRRRAQRRGAP [C181] | higher cell permeability | 682 | 1.314 | higher cell permeability | higher cell permeability | higher cell permeability | higher cell permeability | – | – | – | – | – | – |
| RLREKRRSLKRKRP [C262] | – | 345 | 0.665 | – | – | – | higher cell permeability | higher cell permeability | higher cell permeability | higher cell permeability | – | – | – |
| RIRALARRRDRRRP [C354] | higher cell permeability | 564 | 1.087 | – | higher cell permeability | – | higher cell permeability | higher cell permeability | higher cell permeability | higher cell permeability | – | – | – |
| YRPRRKKATKKLKR [C284] | higher cell permeability | 532 | 1.025 | – | higher cell permeability | – | higher cell permeability | – | higher cell permeability | – | higher cell permeability | – | – |
| RPALKQRRWRRKKK [C117] | higher cell permeability | 936 | 1.803 | higher cell permeability | higher cell permeability | higher cell permeability | higher cell permeability | higher cell permeability | – | higher cell permeability | – | higher cell permeability | higher cell permeability |
| RLRALVRRKQRARP [C82] | higher cell permeability | 628 | 1.210 | higher cell permeability | – | – | – | higher cell permeability | – | higher cell permeability | – | higher cell permeability | – |
| MKRLLKVVRRRRRP [C201] | higher cell permeability | 802 | 1.545 | – | higher cell permeability | – | higher cell permeability | – | – | – | higher cell permeability | – | higher cell permeability |
| RVRSLARRARRRTP [C401] | – | 425 | 0.819 | – | – | – | – | higher cell permeability | – | higher cell permeability | – | – | – |
| RPIRKLLRQARQRR [C131] | higher cell permeability | 790 | 1.522 | higher cell permeability | higher cell permeability | higher cell permeability | higher cell permeability | – | – | – | – | – | – |
| RTRLLRRLRALKPR [C223] | – | 408 | 0.786 | higher cell permeability | – | – | higher cell permeability | – | – | – | – | – | – |
| KRRKLRIKRRIRVP [C208] | higher cell permeability | 1326 | 2.555 | higher cell permeability | – | higher cell permeability | higher cell permeability | higher cell permeability | – | – | – | higher cell permeability | higher cell permeability |
| RVRTLLRRRRTERP [C402] | – | 437 | 0.842 | – | – | – | – | higher cell permeability | – | higher cell permeability | – | – | – |
| RVRALARRRRQARP [C282] | – | 441 | 0.850 | – | – | – | higher cell permeability | higher cell permeability | higher cell permeability | higher cell permeability | – | – | – |
